Data reported in patent publication EP1650209A1, “Griseusin derivatives and their use as antitumor agents” (Oncotest GmbH, priority 2004, dated 2006).
Values after ≈ are worked out from the molar mass of the structure shown.

Experiments:
Assay in all cases: Clonogenic assay, colony formation of tumor stem cells from xenografts
Assay type in all cases: cell-based, human
CEXF 773 = conditions: Cervix, xenograft CEXF 773, colony formation
Experimental: (§1) Using various human cancer xenografts in vitro, the concentrations of compound B which inhibit formation of tumor colonies of tumor stem cells by 50% (IC50) and 70% (IC70) are determined in a clonogenic assay. Specifically, each solid tumor of bladder cancer (BXF 1036 and BXF 1299), cervical cancer (CEXF 633 and CEXF 773), colic cancer (CXF 1103, CXF 158, CXF 1729, CXF 264 and CXF 280), gastric cancer (GXF 251 and GXF 97), head and neck cancer (HNXF 536), liver cancer (LIXF 575), non small cell lung cancer comprising adeno, squamous epithelium and large cell carcinoma (LXFA 1012, LXFA 289, LXFA 297, LXFA 526, LXFA 592, LXFA 629, LXFA 677, LXFE 409, LXFL 1072, LXFL 430LX and LXFL 529), small cell lung cancer (LXFS 650), mammary cancer (MAXF 1162, MAXF 1384, MAXF 401, MAXF 449, MAXF 574, MAXF 583, MAXF 713 and MAXF 857), melanoma (MEXF 1341, MEXF 462, MEXF 535 and MEXF 989), ovary cancer (OVXF 899), pancreatic cancer (PAXF 546 and PAXF 736), prostate cancer (DU-145 and PC3M), pleuramesothelioma (PXF 1752), renal cancer (RXF 1220, RXF 1393, RXF 393, RXF 631 and RXF 944LX), and sarcoma (SXF 1301 and SXF 463) engrafted on RPMI nu/nu thymus aplastic nude mice were explanted, disaggregated by mincing and enzymatic digestion for 50 minutes using 125 U/mL DNAse I, 41 U/mL collagenase IV, 100 U/ml hyaluronidase III, and 1 U/mL dispase I, and passed through sieves of 200 µm and 50 µm mesh size and washed twice with sterile PBS-buffer to remove cell aggregated from single cells. The clonogenic assay was performed in a 24 multiwell format. Each of the resulting single cell suspensions was added at a density of 2·10^4 to 6·10^4 cells per well to 0.2 ml of Iscove's Modified Dulbecco's Medium (IMDM) containing 20% fetal calf serum and 0.01% gentamicin supplemented with 0.4% (w/v) agar, and plated onto a bottom layer consisting of the same culture medium containing 0.75% (w/v) agar. After 24 hours IMDM containing 20% fetal calf serum and 0.01 % gentamicin, together with a test compound, was added there to. Then, the plate was incubated at 37°C for 10 to 20 days in a humidified atmosphere of air containing 7.5% CO2. Within this period, in vitro tumor growth led to the formation of colonies with a diameter of > 50µm. Colony counts were performed with an automatic image analysis system (OMNICON 3600). 24 hours prior to evaluation, vital colonies were stained with a vital staining dye. Therefore, 100 µl of a sterile aqueous solution of 2-(4-iodophenyl)-3-(4-nitrophenyl)-5-phenyltetrazolium chloride (1 mg/ml) were added to each well of the plate, and plates were incubated for 24 hours at 37°C in a humidified atmosphere of air containing 7.5% CO2. Inhibition of colony formation was expressed as test versus untreated control (T/C-value [%]). IC50 and IC70 values were determined by plotting compound concentration versus cell viability. Table 3: Inhibition of Colony Formation of Tumor Stem Cells by griseusin derivative B

BXF 1299 = conditions: Bladder, xenograft BXF 1299, colony formation
Experimental: as §1

CXF 264 = conditions: Colon, xenograft CXF 264, colony formation
Experimental: as §1

LXFA 677 = conditions: Lung, non small cell, xenograft LXFA 677, colony formation
Experimental: as §1

SXF 463 = conditions: Sarcoma, xenograft SXF 463, colony formation
Experimental: as §1

CXF 1729 = conditions: Colon, xenograft CXF 1729, colony formation
Experimental: as §1

RXF 944LX = conditions: Kidney, xenograft RXF 944LX
Experimental: as §1

LXFA 297 = conditions: Lung, non small cell, xenograft LXFA 297, colony formation
Experimental: as §1

LXFL 529 = conditions: Lung, non small cell, xenograft LXFL 529, colony formation
Experimental: as §1

RXF 631 = conditions: Kidney, xenograft RXF 631, colony formation
Experimental: as §1

LXFA 289 = conditions: Lung, non small cell, xenograft LXFA 289, colony formation
Experimental: as §1

PAXF 736 = conditions: Pancreas, xenograft PAXF 736, colony formation
Experimental: as §1

MAXF 1384 = conditions: Breast, xenograft MAXF 1384, colony formation
Experimental: as §1

How did the IC50 (CEXF 773) turn out when C[C@@H]1CC(=O)[C@@H](O)[C@]2(O1)O[C@@H]1CC(=O)O[C@@H]1C1=C2C(=O)c2c(O)cccc2C1=O [Compound B, 4'-dehydro-deacetylgriseusin A] was run?
Its IC50 is 1.936 µg/mL (≈ 4.84 µM).

And the IC70 (CEXF 773)?
The IC70 was 2.333 µg/mL (≈ 5.83 µM).

What about the IC50 (BXF 1299) of the same compound?
The IC50 was 1.107 µg/mL (≈ 2.77 µM).

What about the IC70 (BXF 1299) of the same compound?
The IC70 was 1.662 µg/mL (≈ 4.15 µM).

What about the IC50 (CXF 264) of the same compound?
Its IC50 is 0.103 µg/mL (≈ 0.257 µM).

What about the IC70 (CXF 264) of the same compound?
Its IC70 is 0.215 µg/mL (≈ 0.537 µM).

What about the IC50 (LXFA 677) of the same compound?
The IC50 was 0.974 µg/mL (≈ 2.43 µM).

What about the IC70 (LXFA 677) of the same compound?
Its IC70 is 8.063 µg/mL (≈ 20.1 µM).

And the IC50 (SXF 463)?
Its IC50 is 0.235 µg/mL (≈ 0.587 µM).

And the IC70 (SXF 463)?
Its IC70 is 0.334 µg/mL (≈ 0.834 µM).

And the IC50 (CXF 1729)?
The IC50 was 0.453 µg/mL (≈ 1.13 µM).

What about the IC70 (CXF 1729) of the same compound?
Its IC70 is 0.630 µg/mL (≈ 1.57 µM).

And the IC50 (RXF 944LX)?
The IC50 was 0.116 µg/mL (≈ 0.29 µM).

And the IC70 (RXF 944LX)?
Its IC70 is 0.171 µg/mL (≈ 0.427 µM).

And the IC50 (LXFA 297)?
The IC50 was 1.461 µg/mL (≈ 3.65 µM).

What about the IC70 (LXFA 297) of the same compound?
Its IC70 is 2.179 µg/mL (≈ 5.44 µM).

And the IC50 (LXFL 529)?
Its IC50 is 0.364 µg/mL (≈ 0.909 µM).

What about the IC70 (LXFL 529) of the same compound?
The IC70 was 0.699 µg/mL (≈ 1.75 µM).

And the IC50 (RXF 631)?
The IC50 was 0.517 µg/mL (≈ 1.29 µM).

What about the IC70 (RXF 631) of the same compound?
Its IC70 is 0.719 µg/mL (≈ 1.8 µM).

And the IC50 (LXFA 289)?
The IC50 was 0.218 µg/mL (≈ 0.545 µM).

And the IC70 (LXFA 289)?
Its IC70 is 0.425 µg/mL (≈ 1.06 µM).

And the IC50 (PAXF 736)?
The IC50 was 0.246 µg/mL (≈ 0.614 µM).

What about the IC70 (PAXF 736) of the same compound?
The IC70 was 0.452 µg/mL (≈ 1.13 µM).

What about the IC50 (MAXF 1384) of the same compound?
Its IC50 is 0.606 µg/mL (≈ 1.51 µM).

What about the IC70 (MAXF 1384) of the same compound?
Its IC70 is 0.750 µg/mL (≈ 1.87 µM).
